Test results reported in the NIST ThermoML archive (doi:10.1016/j.fluid.2014.04.019).
Numbers after ± are expanded uncertainties.

Key:
[1] = 101 kPa, Liquid
[2] = xn = mol fraction of the nth substance listed; conditions: 101 kPa, Liquid, x1 = 1

| SMILES | kinematic viscosity ([1]; 298.15 K) [m2/s] | mass density ([1]; 298.15 K) [kg/m3] | kinematic viscosity ([1]; 303.15 K) [m2/s] | mass density ([1]; 303.15 K) [kg/m3] | kinematic viscosity ([1]; 308.15 K) [m2/s] | mass density ([1]; 308.15 K) [kg/m3] | kinematic viscosity ([1]; 313.15 K) [m2/s] | mass density ([1]; 313.15 K) [kg/m3] | kinematic viscosity ([1]; 318.15 K) [m2/s] | mass density ([1]; 318.15 K) [kg/m3] | kinematic viscosity ([2]; 298.15 K) [m2/s] | mass density ([2]; 298.15 K) [kg/m3] | kinematic viscosity ([2]; 303.15 K) [m2/s] | mass density ([2]; 303.15 K) [kg/m3] | kinematic viscosity ([2]; 308.15 K) [m2/s] | mass density ([2]; 308.15 K) [kg/m3] | kinematic viscosity ([2]; 313.15 K) [m2/s] | mass density ([2]; 313.15 K) [kg/m3] | kinematic viscosity ([2]; 318.15 K) [m2/s] | mass density ([2]; 318.15 K) [kg/m3] |
| --- | --- | --- | --- | --- | --- | --- | --- | --- | --- | --- | --- | --- | --- | --- | --- | --- | --- | --- | --- | --- |
| OCCOCCO [diethylene glycol] | 2.76e-05 ± 1.2e-06 | 1113 ± 2.9 | 2.13e-05 ± 9e-07 | 1109.2 ± 3 | 1.68e-05 ± 7e-07 | 1106.1 ± 3.1 | 1.45e-05 ± 6e-07 | 1103 ± 3.2 | 1.12e-05 ± 5e-07 | 1099.3 ± 3.3 |  |  |  |  |  |  |  |  |  |  |
| CN(C)C=O [dimethylformamide] | 8.15e-07 ± 5.2e-08 | 943.9 ± 2.4 | 7.6e-07 ± 4.9e-08 | 939.6 ± 2.5 | 7.22e-07 ± 4.7e-08 | 934.2 ± 2.6 | 6.75e-07 ± 4.4e-08 | 929.9 ± 2.7 | 6.38e-07 ± 4.2e-08 | 924.7 ± 2.8 |  |  |  |  |  |  |  |  |  |  |
| CN(C)C=O [dimethylformamide] + OCCOCCO |  |  |  |  |  |  |  |  |  |  | 8.15e-07 ± 5.2e-08 | 943.9 ± 2.4 | 7.6e-07 ± 4.9e-08 | 939.6 ± 2.5 | 7.22e-07 ± 4.7e-08 | 934.2 ± 2.6 | 6.75e-07 ± 4.4e-08 | 929.9 ± 2.7 | 6.38e-07 ± 4.2e-08 | 924.7 ± 2.8 |
